Measurements taken from US6737383B1, “Herbicidal oxadiazolidines” (priority 1999, dated 2004).

What was measured:
purple nutsedge = assay: Test B pre/postemergence purple nutsedge; assay type: in vivo, Cyperus rotundus; settings: for Plant response rating, Nutsedge: scale of 0 to 10 where 0 is no effect and 10 is complete control
How it was run: (§1)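 Test chemicals in a non-phytotoxic solvent mixture with surfactant were sprayed preemergence onto planted seeds and postemergence onto plants 2 to 18 cm tall (1- to 4-leaf stage). After twelve to sixteen days in a greenhouse, injury was visually rated against untreated controls from 0 (no effect) to 10 (complete control).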

rice = assay: Test B flood test rice; assay type: in vivo, Oryza sativa
How it was run: (§2)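 Flood test on plants grown to the 2-leaf stage; treated plants kept in greenhouse twelve to sixteen days, then visually rated against controls on a 0 (no effect) to 10 (complete control) scale.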

cocklebur = assay: Test B pre/postemergence cocklebur; assay type: in vivo, Xanthium strumarium
How it was run: as §1

duck salad = assay: Test B flood test duck salad; assay type: in vivo, Heteranthera limosa
How it was run: as §2

corn = assay: Test B pre/postemergence corn; assay type: in vivo, Zea mays
How it was run: as §1

crabgrass = assay: Test B pre/postemergence crabgrass; assay type: in vivo, Digitaria sanguinalis
How it was run: as §1

velvetleaf = assay: Test B pre/postemergence velvetleaf; assay type: in vivo, Abutilon theophrasti; settings: for Plant response rating, Velvetleaf: scale of 0 to 10 where 0 is no effect and 10 is complete control
How it was run: as §1

blackgrass = assay: Test B pre/postemergence blackgrass; assay type: in vivo, Alopecurus myosuroides
How it was run: as §1

rape = assay: Test B pre/postemergence rape; assay type: in vivo, Brassica napus; settings: for Plant response rating, Rape: scale of 0 to 10 where 0 is no effect and 10 is complete control
How it was run: as §1

smallflower flatsedge = assay: Test B flood test smallflower flatsedge; assay type: in vivo, Cyperus difformis
How it was run: as §2

wheat = assay: Test B pre/postemergence wheat; assay type: in vivo, Triticum aestivum; settings: for Plant response rating, Wheat: scale of 0 to 10 where 0 is no effect and 10 is complete control
How it was run: as §1

morningglory = assay: Test B pre/postemergence morningglory; assay type: in vivo, Ipomoea hederacea; settings: for Plant response rating, Morningglory: scale of 0 to 10 where 0 is no effect and 10 is complete control
How it was run: as §1

giant foxtail = assay: Test B pre/postemergence giant foxtail; assay type: in vivo, Setaria faberii
How it was run: as §1

wild oat = assay: Test B pre/postemergence wild oat; assay type: in vivo, Avena fatua; settings: for Plant response rating, Wild oats: scale of 0 to 10 where 0 is no effect and 10 is complete control
How it was run: as §1

pigweed = assay: Test B pre/postemergence pigweed; assay type: in vivo, Amaranthus retroflexus; settings: for Plant response rating, Redroot pigweed: scale of 0 to 10 where 0 is no effect and 10 is complete control
How it was run: as §1

surinam grass = assay: Test B pre/postemergence surinam grass; assay type: in vivo, Brachiaria decumbens
How it was run: as §1

sugar beet = assay: Test B pre/postemergence sugar beet; assay type: in vivo, Beta vulgaris; settings: for Plant response rating, Sugarbeets: scale of 0 to 10 where 0 is no effect and 10 is complete control
How it was run: as §1

bamyardgrass = assay: Test B flood test barnyardgrass; assay type: in vivo, Echinochloa crus-galli
How it was run: as §2

soybean = assay: Test B pre/postemergence soybean; assay type: in vivo, Glycine max; settings: for Plant response rating, Soybean: scale of 0 to 10 where 0 is no effect and 10 is complete control
How it was run: as §1

[1] = Postemergence, Rate 250 g/ha, scale 0 to 10
[2] = Preemergence, Rate 250 g/ha, scale 0 to 10, 0 is no effect, 10 is complete control
[3] = Preemergence, Rate 500 g/ha, scale 0 to 10, 0 is no effect, 10 is complete control
[4] = Rate 62 g/ha, Postemergence, scale 0 to 10 (0 no effect, 10 complete control)
[5] = Rate 125 g/ha, Postemergence, scale 0 to 10, 0 is no effect, 10 is complete control
[6] = Rate 62 g/ha, flood test species, Pre-emergence, visual evaluation after twelve to sixteen days
[7] = Rate 125 g/ha, under heading Pre-emergence, flood test species, visual evaluation after twelve to sixteen days
[8] = Rate 250 g/ha, Pre-emergence (flood test species), scale 0 to 10, 0 is no effect, 10 is complete control
[9] = Rate 500 g/ha, Pre-emergence, flood test species, scale 0 to 10 (0 no effect, 10 complete control)
[10] = Postemergence, Rate 500 g/ha, scale of 0 to 10 where 0 is no effect and 10 is complete control
[11] = Preemergence, Rate 62 g/ha, scale of 0 to 10 where 0 is no effect and 10 is complete control
[12] = Preemergence, Rate 125 g/ha, scale of 0 to 10 where 0 is no effect and 10 is complete control

CCOC(=O)CC(C(=O)OCC)n1c(=O)on(C(=O)N(c2ccc(F)cc2F)C(C)C)c1=O (centres unmarked) [Compound 465]
9: Giant foxtail plant response rating (giant foxtail; [10]) | Plant response rating, Redroot pigweed (pigweed; Preemergence, Rate 125 g/ha) | Redroot pigweed plant response rating (pigweed; [2])
3: Velvetleaf plant response rating (velvetleaf; [1]) | Plant response rating, Velvetleaf (velvetleaf; Preemergence, Rate 125 g/ha) | Plant response rating, Blackgrass (blackgrass; [12]) | Wild oats plant response rating (wild oat; [3]) | Plant response rating, Redroot pigweed (pigweed; Preemergence, Rate 62 g/ha) | B. signalgrass plant response rating (surinam grass; [2]) | Sugarbeets plant response rating (sugar beet; [2])
0: Nutsedge plant response rating (purple nutsedge; [1]) | Plant response rating, Nutsedge (purple nutsedge; Preemergence, Rate 62 g/ha) | Plant response rating, Nutsedge (purple nutsedge; Preemergence, Rate 125 g/ha) | Nutsedge plant response rating (purple nutsedge; [2]) | Nutsedge plant response rating (purple nutsedge; [3]) | Nutsedge plant response rating (purple nutsedge; [4]) | Nutsedge plant response rating (purple nutsedge; [5]) | Plant response rating, Rice (0 to 10 scale, 0 is no effect, 10 is complete control) (rice; [6]) | Rice plant response rating (0 to 10 scale, 0 is no effect, 10 is complete control) (rice; [7]) | Rice plant response rating (rice; [8]) | Rice plant response rating (rice; [9]) | Cocklebur plant response rating (cocklebur; [1]) | Cocklebur plant response rating (cocklebur; [10]) | Plant response rating, Cocklebur (cocklebur; [11]) | Plant response rating, Cocklebur (cocklebur; [12]) | Cocklebur plant response rating (cocklebur; [2]) | Cocklebur plant response rating (cocklebur; [3]) | Cocklebur plant response rating (cocklebur; [4]) | Cocklebur plant response rating (cocklebur; [5]) | Plant response rating, Ducksalad (0 to 10 scale, 0 is no effect, 10 is complete control) (duck salad; [6]) | Ducksalad plant response rating (0 to 10 scale, 0 is no effect, 10 is complete control) (duck salad; [7]) | Ducksalad plant response rating (duck salad; [8]) | Ducksalad plant response rating (duck salad; [9]) | Corn plant response rating (corn; [1]) | Plant response rating, Corn (corn; [11]) | Plant response rating, Corn (corn; [12]) | Corn plant response rating (corn; [2]) | Corn plant response rating (corn; [4]) | Corn plant response rating (corn; [5]) | Plant response rating, Velvetleaf (velvetleaf; Preemergence, Rate 62 g/ha) | Velvetleaf plant response rating (velvetleaf; [4]) | Velvetleaf plant response rating (velvetleaf; [5]) | Blackgrass plant response rating (blackgrass; [4]) | Rape plant response rating (rape; [1]) | Plant response rating, Rape (rape; Preemergence, Rate 62 g/ha) | Rape plant response rating (rape; [4]) | Rape plant response rating (rape; [5]) | Plant response rating, S. Flatsedge (0 to 10 scale, 0 is no effect, 10 is complete control) (smallflower flatsedge; [6]) | S. Flatsedge plant response rating (0 to 10 scale, 0 is no effect, 10 is complete control) (smallflower flatsedge; [7]) | S. Flatsedge plant response rating (smallflower flatsedge; [8]) | S. Flatsedge plant response rating (smallflower flatsedge; [9]) | Wheat plant response rating (wheat; [1]) | Plant response rating, Wheat (wheat; Preemergence, Rate 62 g/ha) | Plant response rating, Wheat (wheat; Preemergence, Rate 125 g/ha) | Wheat plant response rating (wheat; [2]) | Wheat plant response rating (wheat; [3]) | Wheat plant response rating (wheat; [4]) | Wheat plant response rating (wheat; [5]) | Plant response rating, Morningglory (morningglory; Preemergence, Rate 62 g/ha) | Plant response rating, Morningglory (morningglory; Preemergence, Rate 125 g/ha) | Morningglory plant response rating (morningglory; [2]) | Morningglory plant response rating (morningglory; [3]) | Morningglory plant response rating (morningglory; [4]) | Wild oats plant response rating (wild oat; [1]) | Plant response rating, Wild oats (wild oat; Preemergence, Rate 62 g/ha) | Plant response rating, Wild oats (wild oat; Preemergence, Rate 125 g/ha) | Wild oats plant response rating (wild oat; [4]) | Wild oats plant response rating (wild oat; [5]) | Redroot pigweed plant response rating (pigweed; [1]) | Redroot pigweed plant response rating (pigweed; [4]) | Redroot pigweed plant response rating (pigweed; [5]) | B. signalgrass plant response rating (surinam grass; Postemergence, Rate 250 g/ha, scale 0 to 10, 0 no effect, 10 complete control) | B. signalgrass plant response rating (surinam grass; [10]) | Plant response rating, B. signalgrass (surinam grass; [11]) | B. signalgrass plant response rating (surinam grass; [4]) | B. signalgrass plant response rating (surinam grass; [5]) | Sugarbeets plant response rating (sugar beet; [1]) | Plant response rating, Sugarbeets (sugar beet; Preemergence, Rate 62 g/ha) | Sugarbeets plant response rating (sugar beet; [4]) | Sugarbeets plant response rating (sugar beet; [5]) | Plant response rating, Barnyardgrass (0 to 10 scale, 0 is no effect, 10 is complete control) (bamyardgrass; [6]) | Barnyardgrass plant response rating (0 to 10 scale, 0 is no effect, 10 is complete control) (bamyardgrass; [7]) | Barnyardgrass plant response rating (bamyardgrass; [8]) | Barnyardgrass plant response rating (bamyardgrass; [9]) | Plant response rating, Soybean (soybean; Preemergence, Rate 62 g/ha) | Plant response rating, Soybean (soybean; Preemergence, Rate 125 g/ha)
4: Crabgrass plant response rating (crabgrass; [2])
2: Corn plant response rating (corn; [10]) | Corn plant response rating (corn; [3]) | Plant response rating, Crabgrass (crabgrass; [11]) | Plant response rating, Blackgrass (blackgrass; [11]) | Blackgrass plant response rating (blackgrass; [5]) | Plant response rating, Rape (rape; Preemergence, Rate 125 g/ha) | Rape plant response rating (rape; [2]) | Morningglory plant response rating (morningglory; [1]) | Giant foxtail plant response rating (giant foxtail; [4]) | Wild oats plant response rating (wild oat; [2]) | Plant response rating, B. signalgrass (surinam grass; [12]) | Plant response rating, Sugarbeets (sugar beet; Preemergence, Rate 125 g/ha)
6: Blackgrass plant response rating (blackgrass; [1]) | Blackgrass plant response rating (blackgrass; [2])
7: Velvetleaf plant response rating (velvetleaf; [2]) | Plant response rating, Giant foxtail (giant foxtail; [11]) | Soybean plant response rating (soybean; [2])
8: Crabgrass plant response rating (crabgrass; [10]) | Velvetleaf plant response rating (velvetleaf; [3]) | Blackgrass plant response rating (blackgrass; [10])
10: Crabgrass plant response rating (crabgrass; [3]) | Blackgrass plant response rating (blackgrass; [3]) | Plant response rating, Giant foxtail (giant foxtail; [12]) | Giant foxtail plant response rating (giant foxtail; [2]) | Giant foxtail plant response rating (giant foxtail; [3]) | Redroot pigweed plant response rating (pigweed; [3])
5: Crabgrass plant response rating (crabgrass; [1]) | Rape plant response rating (rape; [3]) | Giant foxtail plant response rating (giant foxtail; [1]) | Giant foxtail plant response rating (giant foxtail; [5]) | B. signalgrass plant response rating (surinam grass; [3]) | Sugarbeets plant response rating (sugar beet; [3])
1: Crabgrass plant response rating (crabgrass; [4]) | Crabgrass plant response rating (crabgrass; [5]) | Morningglory plant response rating (morningglory; [5]) | Soybean plant response rating (soybean; [1]) | Soybean plant response rating (soybean; [4]) | Soybean plant response rating (soybean; [5])
